One block for each compound: values may come before it.
Columns and labels:
[1] = molecular target: T1, Tyrosine-protein kinase ZAP-70 (Homo sapiens) (UniProt P43403); test: Selectivity interaction (Millipore kinase profiler) EUB0000124b ZAP70; conditions: at 10 µM
T1 sequence (whole entry): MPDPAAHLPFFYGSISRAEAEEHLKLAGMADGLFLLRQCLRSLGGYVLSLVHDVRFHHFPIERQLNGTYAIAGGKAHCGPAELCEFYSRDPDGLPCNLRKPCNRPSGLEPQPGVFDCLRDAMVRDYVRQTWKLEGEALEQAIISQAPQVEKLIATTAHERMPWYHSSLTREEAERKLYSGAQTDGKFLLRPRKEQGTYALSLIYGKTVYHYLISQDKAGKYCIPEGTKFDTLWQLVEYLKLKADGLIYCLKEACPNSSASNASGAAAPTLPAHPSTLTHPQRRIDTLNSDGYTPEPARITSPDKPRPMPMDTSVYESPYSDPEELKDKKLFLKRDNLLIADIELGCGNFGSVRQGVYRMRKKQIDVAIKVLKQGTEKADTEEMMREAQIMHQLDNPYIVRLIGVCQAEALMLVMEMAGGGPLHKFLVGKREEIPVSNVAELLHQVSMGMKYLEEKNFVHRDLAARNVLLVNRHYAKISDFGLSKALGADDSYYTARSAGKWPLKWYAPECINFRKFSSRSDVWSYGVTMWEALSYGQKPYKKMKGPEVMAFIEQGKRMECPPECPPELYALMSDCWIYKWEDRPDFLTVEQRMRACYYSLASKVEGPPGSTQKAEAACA

[2] = molecular target: T2, Serine/threonine-protein kinase 17A (Homo sapiens) (UniProt Q9UEE5); test: Selectivity interaction (Ambit KINOMEscan and KiNATiv profiling in Jurkat cells) EUB0000090b STK17A; type: cell-based; conditions: at 1 µM
T2 sequence (whole entry): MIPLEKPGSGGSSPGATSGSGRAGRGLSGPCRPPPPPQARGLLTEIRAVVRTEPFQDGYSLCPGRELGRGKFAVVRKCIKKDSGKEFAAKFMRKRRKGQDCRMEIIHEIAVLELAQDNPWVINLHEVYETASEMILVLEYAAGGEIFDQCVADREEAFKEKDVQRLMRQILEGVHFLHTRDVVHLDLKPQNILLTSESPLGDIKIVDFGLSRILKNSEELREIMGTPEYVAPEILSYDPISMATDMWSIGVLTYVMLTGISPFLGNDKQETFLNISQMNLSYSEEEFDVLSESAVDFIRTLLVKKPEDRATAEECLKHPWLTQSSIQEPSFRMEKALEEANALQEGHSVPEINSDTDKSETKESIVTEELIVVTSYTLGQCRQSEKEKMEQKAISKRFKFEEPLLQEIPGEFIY

Aurora kinase B = Aurora kinase B (Homo sapiens, UniProt Q96GD4); test: Selectivity interaction (ActivX KiNativ screen (kinase selectivity in THP-1 cell lysates)) EUB0000639a AURKB; type: subcellular; conditions: lysate
Chain of Aurora kinase B (Q96GD4 whole entry): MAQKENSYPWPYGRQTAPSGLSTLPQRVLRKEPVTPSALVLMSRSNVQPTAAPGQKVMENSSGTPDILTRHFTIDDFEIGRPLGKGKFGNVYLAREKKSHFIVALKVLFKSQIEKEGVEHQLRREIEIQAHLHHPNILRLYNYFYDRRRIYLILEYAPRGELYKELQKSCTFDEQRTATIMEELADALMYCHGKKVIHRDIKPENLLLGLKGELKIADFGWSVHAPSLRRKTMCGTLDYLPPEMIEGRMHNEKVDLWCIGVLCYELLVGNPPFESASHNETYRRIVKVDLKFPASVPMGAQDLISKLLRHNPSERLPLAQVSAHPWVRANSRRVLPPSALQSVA

[3] = molecular target: T3, cAMP-dependent protein kinase catalytic subunit PRKX (Homo sapiens) (UniProt P51817); test: Selectivity interaction (Kinase panel (Invitrogen)) EUB0000639a PRKX; conditions: at 200 nM
T3 sequence (whole entry): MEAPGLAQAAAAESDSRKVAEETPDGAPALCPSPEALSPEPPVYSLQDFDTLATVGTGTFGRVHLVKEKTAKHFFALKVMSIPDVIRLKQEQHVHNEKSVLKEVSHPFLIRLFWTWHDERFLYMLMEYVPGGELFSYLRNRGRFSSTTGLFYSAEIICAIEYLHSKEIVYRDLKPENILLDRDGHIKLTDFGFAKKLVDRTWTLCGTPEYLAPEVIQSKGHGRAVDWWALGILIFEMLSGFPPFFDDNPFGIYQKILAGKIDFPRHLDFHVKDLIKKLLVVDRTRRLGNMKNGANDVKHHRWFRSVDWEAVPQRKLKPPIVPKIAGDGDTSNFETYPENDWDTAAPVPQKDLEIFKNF

[4] = molecular target: Cyclin-dependent kinase 3 (Homo sapiens) (UniProt Q00526); conditions: at 10 µM
Chain of Cyclin-dependent kinase 3 (Homo sapiens) (Q00526 whole entry, looked up): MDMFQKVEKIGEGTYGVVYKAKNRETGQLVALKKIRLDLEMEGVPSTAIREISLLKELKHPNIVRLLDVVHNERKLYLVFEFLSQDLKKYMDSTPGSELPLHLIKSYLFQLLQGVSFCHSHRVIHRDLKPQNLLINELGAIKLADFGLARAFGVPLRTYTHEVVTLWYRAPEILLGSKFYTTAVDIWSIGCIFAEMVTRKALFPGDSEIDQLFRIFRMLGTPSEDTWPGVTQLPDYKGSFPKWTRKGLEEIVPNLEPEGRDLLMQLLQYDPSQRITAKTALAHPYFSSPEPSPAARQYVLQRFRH

[5] = molecular target: T4, Gamma-aminobutyric acid receptor subunit alpha-1 (Homo sapiens) (UniProt P14867); test: Selectivity interaction (Panel of non-epigenetic targets (kinases, GPCRs, ion channels, and transporters, Eurofins) ) EUB0000271b GABRA1; conditions: at 1 µM
T4 sequence (whole entry): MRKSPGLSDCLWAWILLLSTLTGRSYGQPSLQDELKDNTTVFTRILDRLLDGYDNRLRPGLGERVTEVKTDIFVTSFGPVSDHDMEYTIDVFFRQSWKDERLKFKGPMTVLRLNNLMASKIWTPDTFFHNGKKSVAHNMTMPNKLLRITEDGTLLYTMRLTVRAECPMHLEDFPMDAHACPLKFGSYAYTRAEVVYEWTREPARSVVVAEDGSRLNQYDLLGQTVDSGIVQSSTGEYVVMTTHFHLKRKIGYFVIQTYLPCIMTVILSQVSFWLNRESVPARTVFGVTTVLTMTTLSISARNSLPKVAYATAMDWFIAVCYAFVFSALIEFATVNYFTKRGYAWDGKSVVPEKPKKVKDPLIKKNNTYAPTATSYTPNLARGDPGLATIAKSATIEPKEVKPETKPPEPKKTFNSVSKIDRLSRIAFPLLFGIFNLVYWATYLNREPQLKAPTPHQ

[6] = molecular target: T5, Receptor-interacting serine/threonine-protein kinase 1 (Homo sapiens) (UniProt Q13546); test: Selectivity interaction (KinomeScan (DiscoverX)) EUB0001079a RIPK1; conditions: at 1 µM
T5 sequence (whole entry): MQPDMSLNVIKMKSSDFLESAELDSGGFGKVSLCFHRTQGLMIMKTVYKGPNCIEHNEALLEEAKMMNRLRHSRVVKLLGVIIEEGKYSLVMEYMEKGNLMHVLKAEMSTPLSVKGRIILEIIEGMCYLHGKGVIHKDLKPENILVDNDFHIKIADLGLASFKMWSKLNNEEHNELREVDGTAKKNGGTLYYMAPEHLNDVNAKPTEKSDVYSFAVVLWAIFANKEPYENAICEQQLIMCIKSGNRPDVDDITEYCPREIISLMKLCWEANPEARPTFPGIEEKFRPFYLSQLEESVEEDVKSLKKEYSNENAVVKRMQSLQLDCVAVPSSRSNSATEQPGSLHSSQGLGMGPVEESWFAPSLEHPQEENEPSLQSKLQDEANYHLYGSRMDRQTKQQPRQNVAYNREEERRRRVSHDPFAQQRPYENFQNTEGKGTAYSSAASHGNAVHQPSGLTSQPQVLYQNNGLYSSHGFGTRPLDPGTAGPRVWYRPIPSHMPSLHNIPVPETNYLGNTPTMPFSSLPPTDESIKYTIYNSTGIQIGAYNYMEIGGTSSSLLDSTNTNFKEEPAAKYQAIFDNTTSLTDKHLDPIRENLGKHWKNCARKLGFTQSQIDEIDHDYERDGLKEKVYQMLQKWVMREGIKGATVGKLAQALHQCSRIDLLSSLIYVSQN

[7] = molecular target: DNA-dependent protein kinase catalytic subunit (Homo sapiens) (UniProt P78527); test: Selectivity interaction (ProQinase) EUB0000171b PRKDC
Chain of DNA-dependent protein kinase catalytic subunit (Homo sapiens) (P78527 whole entry): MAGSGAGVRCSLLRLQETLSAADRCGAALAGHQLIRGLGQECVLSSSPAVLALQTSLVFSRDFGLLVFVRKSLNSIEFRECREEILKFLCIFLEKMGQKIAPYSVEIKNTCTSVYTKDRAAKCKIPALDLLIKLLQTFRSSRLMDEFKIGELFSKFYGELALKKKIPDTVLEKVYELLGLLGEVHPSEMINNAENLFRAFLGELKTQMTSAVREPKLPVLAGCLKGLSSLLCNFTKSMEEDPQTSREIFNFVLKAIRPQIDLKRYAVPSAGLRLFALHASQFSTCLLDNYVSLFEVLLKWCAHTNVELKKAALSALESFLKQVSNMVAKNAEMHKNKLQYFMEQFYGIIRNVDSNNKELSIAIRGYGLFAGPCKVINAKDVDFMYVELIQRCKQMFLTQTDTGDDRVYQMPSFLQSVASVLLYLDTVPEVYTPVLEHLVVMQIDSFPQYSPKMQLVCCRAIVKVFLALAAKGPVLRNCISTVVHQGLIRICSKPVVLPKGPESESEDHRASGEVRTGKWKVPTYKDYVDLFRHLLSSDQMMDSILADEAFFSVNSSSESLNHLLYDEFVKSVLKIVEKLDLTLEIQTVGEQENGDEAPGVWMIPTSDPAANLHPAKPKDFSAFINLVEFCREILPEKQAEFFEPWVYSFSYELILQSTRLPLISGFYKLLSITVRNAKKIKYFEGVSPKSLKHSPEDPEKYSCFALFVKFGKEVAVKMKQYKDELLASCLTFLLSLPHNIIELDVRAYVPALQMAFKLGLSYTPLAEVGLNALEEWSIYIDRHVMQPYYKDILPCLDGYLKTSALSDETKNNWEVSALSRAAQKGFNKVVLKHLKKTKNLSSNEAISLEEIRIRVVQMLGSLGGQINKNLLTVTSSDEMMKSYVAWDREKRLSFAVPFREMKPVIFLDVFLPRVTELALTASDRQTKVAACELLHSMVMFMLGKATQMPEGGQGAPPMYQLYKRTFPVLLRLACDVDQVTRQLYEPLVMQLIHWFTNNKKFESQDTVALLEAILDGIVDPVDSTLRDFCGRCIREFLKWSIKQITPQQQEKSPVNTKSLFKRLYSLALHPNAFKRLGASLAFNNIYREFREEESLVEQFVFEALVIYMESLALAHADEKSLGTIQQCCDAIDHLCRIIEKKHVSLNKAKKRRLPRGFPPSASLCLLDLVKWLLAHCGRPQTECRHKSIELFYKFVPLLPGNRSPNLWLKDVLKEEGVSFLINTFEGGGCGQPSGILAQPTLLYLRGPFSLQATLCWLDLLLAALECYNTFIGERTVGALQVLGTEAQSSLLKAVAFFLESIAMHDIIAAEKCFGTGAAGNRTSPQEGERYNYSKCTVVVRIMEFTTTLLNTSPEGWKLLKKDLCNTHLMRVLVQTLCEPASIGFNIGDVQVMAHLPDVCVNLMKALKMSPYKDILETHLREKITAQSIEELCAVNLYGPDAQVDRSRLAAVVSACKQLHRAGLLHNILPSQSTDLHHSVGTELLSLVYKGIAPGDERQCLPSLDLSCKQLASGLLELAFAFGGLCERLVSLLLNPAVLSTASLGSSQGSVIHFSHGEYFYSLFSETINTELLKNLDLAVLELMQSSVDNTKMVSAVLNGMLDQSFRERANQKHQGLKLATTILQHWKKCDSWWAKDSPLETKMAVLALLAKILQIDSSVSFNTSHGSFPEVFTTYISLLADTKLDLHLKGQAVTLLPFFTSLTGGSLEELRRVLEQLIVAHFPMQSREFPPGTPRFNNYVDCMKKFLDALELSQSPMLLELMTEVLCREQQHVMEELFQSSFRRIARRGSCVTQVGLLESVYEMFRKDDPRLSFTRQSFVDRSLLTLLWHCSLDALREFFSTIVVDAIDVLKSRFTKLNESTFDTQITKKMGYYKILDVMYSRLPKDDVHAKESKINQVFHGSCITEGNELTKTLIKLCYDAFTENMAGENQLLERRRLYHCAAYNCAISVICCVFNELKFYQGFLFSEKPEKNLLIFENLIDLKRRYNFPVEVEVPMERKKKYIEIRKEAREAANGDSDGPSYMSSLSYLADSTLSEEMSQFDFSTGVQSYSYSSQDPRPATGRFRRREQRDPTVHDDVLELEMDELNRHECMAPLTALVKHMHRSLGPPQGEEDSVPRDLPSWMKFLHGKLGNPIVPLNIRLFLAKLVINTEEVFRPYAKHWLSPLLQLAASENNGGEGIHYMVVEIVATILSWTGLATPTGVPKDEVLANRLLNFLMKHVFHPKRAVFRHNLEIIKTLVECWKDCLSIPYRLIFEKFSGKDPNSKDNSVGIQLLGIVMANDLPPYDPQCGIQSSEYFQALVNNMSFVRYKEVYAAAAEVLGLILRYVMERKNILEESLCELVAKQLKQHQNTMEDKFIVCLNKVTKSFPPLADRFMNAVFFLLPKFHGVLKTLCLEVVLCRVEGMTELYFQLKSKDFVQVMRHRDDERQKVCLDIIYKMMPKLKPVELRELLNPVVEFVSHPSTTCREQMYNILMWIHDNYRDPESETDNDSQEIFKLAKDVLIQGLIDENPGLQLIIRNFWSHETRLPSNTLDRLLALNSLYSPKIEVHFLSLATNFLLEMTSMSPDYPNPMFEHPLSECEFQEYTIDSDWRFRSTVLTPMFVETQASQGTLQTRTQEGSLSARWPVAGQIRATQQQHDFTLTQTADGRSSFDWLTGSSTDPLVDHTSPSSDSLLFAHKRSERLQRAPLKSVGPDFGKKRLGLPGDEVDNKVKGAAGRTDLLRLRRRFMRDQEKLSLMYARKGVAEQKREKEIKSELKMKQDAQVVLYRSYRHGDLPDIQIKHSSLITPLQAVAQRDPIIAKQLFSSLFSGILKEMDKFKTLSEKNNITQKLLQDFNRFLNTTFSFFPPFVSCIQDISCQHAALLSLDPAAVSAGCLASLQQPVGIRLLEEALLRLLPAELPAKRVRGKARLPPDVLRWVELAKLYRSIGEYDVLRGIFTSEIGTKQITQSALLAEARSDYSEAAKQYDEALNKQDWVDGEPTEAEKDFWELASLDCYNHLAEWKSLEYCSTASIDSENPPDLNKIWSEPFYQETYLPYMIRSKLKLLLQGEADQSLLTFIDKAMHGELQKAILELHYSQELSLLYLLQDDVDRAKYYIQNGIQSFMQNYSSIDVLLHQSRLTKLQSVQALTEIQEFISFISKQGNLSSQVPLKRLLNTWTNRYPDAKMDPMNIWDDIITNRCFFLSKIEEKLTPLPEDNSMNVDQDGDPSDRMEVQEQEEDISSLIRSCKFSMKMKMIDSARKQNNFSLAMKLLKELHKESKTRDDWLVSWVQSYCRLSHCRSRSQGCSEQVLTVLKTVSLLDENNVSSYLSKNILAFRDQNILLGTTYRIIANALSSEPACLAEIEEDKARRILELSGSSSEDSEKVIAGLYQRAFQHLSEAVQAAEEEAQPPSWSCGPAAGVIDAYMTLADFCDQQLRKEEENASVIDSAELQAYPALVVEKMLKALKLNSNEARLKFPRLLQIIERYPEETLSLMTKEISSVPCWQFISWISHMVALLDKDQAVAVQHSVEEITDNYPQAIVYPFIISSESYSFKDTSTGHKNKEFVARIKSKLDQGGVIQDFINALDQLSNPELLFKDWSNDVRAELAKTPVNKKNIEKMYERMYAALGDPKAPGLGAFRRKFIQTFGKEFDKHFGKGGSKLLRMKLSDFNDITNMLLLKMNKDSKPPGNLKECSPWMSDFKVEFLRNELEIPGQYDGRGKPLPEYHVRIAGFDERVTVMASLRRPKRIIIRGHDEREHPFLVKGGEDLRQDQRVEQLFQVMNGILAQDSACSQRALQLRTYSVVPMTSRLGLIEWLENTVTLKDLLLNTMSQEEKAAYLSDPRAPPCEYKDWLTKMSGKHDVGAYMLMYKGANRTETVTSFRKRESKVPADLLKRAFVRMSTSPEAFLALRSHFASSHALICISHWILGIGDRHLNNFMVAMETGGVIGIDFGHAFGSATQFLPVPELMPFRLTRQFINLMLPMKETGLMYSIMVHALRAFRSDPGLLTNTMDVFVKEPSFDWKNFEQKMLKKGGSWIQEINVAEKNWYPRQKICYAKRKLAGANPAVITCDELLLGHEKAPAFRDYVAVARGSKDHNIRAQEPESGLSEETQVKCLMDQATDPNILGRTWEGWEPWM

SMILES: CN(C)C/C=C/C(=O)Nc1ccc(C(=O)N2CCCC(Nc3ncc(Cl)c(-c4c[nH]c5ccccc45)n3)C2)cc1 (stereo not drawn)
- % of control [2]: 70%

SMILES: CCN(CC)CCCCNc1ncc2cc(-c3cc(OC)cc(OC)c3)c(NC(=O)NC(C)(C)C)nc2n1
- % of control [4]: 100%

SMILES: Cc1cc(C)cc([C@@H]2c3cc(C)ccc3NC(=O)CN2C(=O)c2ccc(Br)s2)c1
- % of inhibition [5]: -9%

SMILES: Nc1cnc(N2CCc3cc(S(=O)(=O)Nc4c(F)cc(Cl)cc4F)cc(N4CCCC4=O)c32)nc1 [TP-020n]
- % of control [6]: 92%

Second part, the compound after the results:

- % of control [1]: 111%
SMILES: CC(=O)Nc1cccc(-n2c(=O)n(C3CC3)c(=O)c3c(Nc4ccc(I)cc4F)n(C)c(=O)c(C)c32)c1

- % of inhibition (Aurora kinase B; at 0.01 µM): 9.7%
- % of inhibition (Aurora kinase B; at 0.04 µM): 3.4%
- % of inhibition (Aurora kinase B; at 0.2 µM): 11.1%
- % of inhibition (Aurora kinase B; at 1 µM): 32.2%
- % of inhibition (Aurora kinase B; at 5 µM): 63.1%
- % of inhibition [3]: 11.1%
SMILES: CC[C@@H]1[C@H](F)C(=O)N[C@@H]1COc1nccc2cc(C(N)=O)c(OC)cc12 [ZIMLOVISERTIB]

- % of control ([7]; at 1 µM): 92%
- % of control ([7]; at 5 µM): 103%
SMILES: C=CC(=O)Nc1cccc(C(=O)Nc2ccc(Nc3cc(-c4[nH]c(SC)nc4C)ccn3)cc2)c1

From ChEMBL document CHEMBL5465560, “Selectivity Literature for EUbOPEN Chemogenomic Library” (2024)
